In patent US6737383B1, “Herbicidal oxadiazolidines” (priority 1999, dated 2004):

Key:
duck salad = assay: Test B flood test duck salad; assay type: in vivo, Heteranthera limosa
Summary of the method: (§1)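 Flood test on plants grown to the 2-leaf stage; treated plants kept in greenhouse twelve to sixteen days, then visually rated against controls on a 0 (no effect) to 10 (complete control) scale.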

rice = assay: Test B flood test rice; assay type: in vivo, Oryza sativa
Summary of the method: as §1

smallflower flatsedge = assay: Test B flood test smallflower flatsedge; assay type: in vivo, Cyperus difformis
Summary of the method: as §1

rape = assay: Test B pre/postemergence rape; assay type: in vivo, Brassica napus
Summary of the method: (§2)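 Response is a visual 0-to-10 score relative to untreated plants, where 0 means no effect and 10 means complete control, taken twelve to sixteen days after application. Treatments went onto soil at planting and onto foliage of 1- to 4-leaf plants, using a surfactant-containing non-phytotoxic solvent.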

bedstraw = assay: Test B pre/postemergence bedstraw; assay type: in vivo, Galium aparine
Summary of the method: as §2

velvetleaf = assay: Test B pre/postemergence velvetleaf; assay type: in vivo, Abutilon theophrasti
Summary of the method: as §2

soybean = assay: Test B pre/postemergence soybean; assay type: in vivo, Glycine max
Summary of the method: as §2

purple nutsedge = assay: Test B pre/postemergence purple nutsedge; assay type: in vivo, Cyperus rotundus
Summary of the method: as §2

crabgrass = assay: Test B pre/postemergence crabgrass; assay type: in vivo, Digitaria sanguinalis
Summary of the method: as §2

sugar beet = assay: Test B pre/postemergence sugar beet; assay type: in vivo, Beta vulgaris
Summary of the method: as §2

wild oat = assay: Test B pre/postemergence wild oat; assay type: in vivo, Avena fatua
Summary of the method: as §2

corn = assay: Test B pre/postemergence corn; assay type: in vivo, Zea mays
Summary of the method: as §2

surinam grass = assay: Test B pre/postemergence surinam grass; assay type: in vivo, Brachiaria decumbens
Summary of the method: as §2

blackgrass = assay: Test B pre/postemergence blackgrass; assay type: in vivo, Alopecurus myosuroides
Summary of the method: as §2

wheat = assay: Test B pre/postemergence wheat; assay type: in vivo, Triticum aestivum
Summary of the method: as §2

cocklebur = assay: Test B pre/postemergence cocklebur; assay type: in vivo, Xanthium strumarium
Summary of the method: as §2

bamyardgrass = assay: Test B flood test barnyardgrass; assay type: in vivo, Echinochloa crus-galli
Summary of the method: as §1

[1] = Postemergence, Rate 62 g/ha, scale 0 to 10, 0 is no effect, 10 is complete control
[2] = Rate 125 g/ha, Postemergence section (flood test species), scale 0 to 10, 0 no effect, 10 complete control
[3] = Rate 500 g/ha, listed under Postemergence (flood test species), scale 0 to 10, 0 no effect, 10 complete control
[4] = flood test, listed under Postemergence, Rate 250 g/ha, scale 0 to 10, 0 no effect, 10 complete control
[5] = Postemergence, Rate 250 g/ha, scale 0 to 10, 0 no effect, 10 complete control
[6] = Preemergence, Rate 62 g/ha, scale 0 to 10 (0 no effect, 10 complete control)
[7] = Preemergence, Rate 125 g/ha, scale 0 to 10 (0 no effect, 10 complete control)
[8] = Preemergence, Rate 250 g/ha, scale of 0 to 10 where 0 is no effect and 10 is complete control
[9] = Preemergence, Rate 500 g/ha, scale 0 (no effect) to 10 (complete control)
[10] = Rate 125 g/ha, Postemergence, scale 0 to 10, 0 no effect, 10 complete control
[11] = Rate 500 g/ha, Postemergence, scale 0 to 10, 0 no effect, 10 complete control

CC(C)N(C(=O)n1oc(=O)n(Cc2cccs2)c1=O)c1ccc(F)cc1 [Compound 80]
Ducksalad plant response rating (duck salad; [1]): 0
Ducksalad plant response rating (duck salad; [2]): 0
Ducksalad plant response rating (duck salad; [3]): 2
Ducksalad plant response rating (duck salad; [4]): 0
Rice plant response rating (rice; [1]): 0
Rice plant response rating (rice; [2]): 0
Rice plant response rating (rice; [3]): 2
Rice plant response rating (rice; [4]): 0
S. Flatsedge plant response rating (smallflower flatsedge; [1]): 0
S. Flatsedge plant response rating (smallflower flatsedge; [2]): 0
S. Flatsedge plant response rating (smallflower flatsedge; [3]): 3
S. Flatsedge plant response rating (smallflower flatsedge; [4]): 3
Rape plant response rating (rape; [1]): 2
Rape plant response rating (rape; [5]): 3
Rape plant response rating (rape; [6]): 0
Plant response rating, Rape (rape; [7]): 3
Plant response rating, Rape (rape; [8]): 4
Rape plant response rating (rape; [9]): 5
Rape plant response rating (rape; [10]): 2
Rape plant response rating (rape; [11]): 3
Bedstraw plant response rating (bedstraw; [1]): 0
Bedstraw plant response rating (bedstraw; [5]): 0
Bedstraw plant response rating (bedstraw; [6]): 0
Plant response rating, Bedstraw (bedstraw; [7]): 0
Plant response rating, Bedstraw (bedstraw; [8]): 0
Bedstraw plant response rating (bedstraw; [9]): 0
Bedstraw plant response rating (bedstraw; [10]): 0
Bedstraw plant response rating (bedstraw; [11]): 6
Velvetleaf plant response rating (velvetleaf; [1]): 0
Velvetleaf plant response rating (velvetleaf; [5]): 0
Velvetleaf plant response rating (velvetleaf; [6]): 0
Plant response rating, Velvetleaf (velvetleaf; [7]): 0
Plant response rating, Velvetleaf (velvetleaf; [8]): 2
Velvetleaf plant response rating (velvetleaf; [9]): 3
Velvetleaf plant response rating (velvetleaf; [10]): 0
Velvetleaf plant response rating (velvetleaf; [11]): 0
Soybean plant response rating (soybean; [1]): 0
Soybean plant response rating (soybean; [5]): 1
Soybean plant response rating (soybean; [6]): 0
Plant response rating, Soybean (soybean; [7]): 0
Plant response rating, Soybean (soybean; [8]): 0
Soybean plant response rating (soybean; [9]): 0
Soybean plant response rating (soybean; [10]): 1
Soybean plant response rating (soybean; [11]): 2
Nutsedge plant response rating (purple nutsedge; [1]): 0
Nutsedge plant response rating (purple nutsedge; [5]): 0
Nutsedge plant response rating (purple nutsedge; [6]): 0
Plant response rating, Nutsedge (purple nutsedge; [7]): 0
Plant response rating, Nutsedge (purple nutsedge; [8]): 0
Nutsedge plant response rating (purple nutsedge; [9]): 0
Nutsedge plant response rating (purple nutsedge; [10]): 0
Nutsedge plant response rating (purple nutsedge; [11]): 0
Crabgrass plant response rating (crabgrass; [1]): 2
Crabgrass plant response rating (crabgrass; [5]): 9
Crabgrass plant response rating (crabgrass; [6]): 3
Plant response rating, Crabgrass (crabgrass; [7]): 3
Plant response rating, Crabgrass (crabgrass; [8]): 10
Crabgrass plant response rating (crabgrass; [9]): 10
Crabgrass plant response rating (crabgrass; [10]): 9
Crabgrass plant response rating (crabgrass; [11]): 9
Sugarbeets plant response rating (sugar beet; [5]): 4
Sugarbeets plant response rating (sugar beet; [6]): 0
Plant response rating, Sugarbeets (sugar beet; [7]): 3
Plant response rating, Sugarbeets (sugar beet; [8]): 4
Sugarbeets plant response rating (sugar beet; [9]): 5
Sugarbeets plant response rating (sugar beet; [10]): 3
Sugarbeets plant response rating (sugar beet; [11]): 7
Wild oats plant response rating (wild oat; [1]): 0
Wild oats plant response rating (wild oat; [5]): 0
Wild oats plant response rating (wild oat; [6]): 0
Plant response rating, Wild oats (wild oat; [7]): 2
Plant response rating, Wild oats (wild oat; [8]): 3
Wild oats plant response rating (wild oat; [9]): 5
Wild oats plant response rating (wild oat; [10]): 0
Wild oats plant response rating (wild oat; [11]): 0
Corn plant response rating (corn; [1]): 0
Corn plant response rating (corn; [5]): 0
Corn plant response rating (corn; [6]): 0
Plant response rating, Corn (corn; [7]): 0
Plant response rating, Corn (corn; [8]): 0
Corn plant response rating (corn; [9]): 0
Corn plant response rating (corn; [10]): 0
Corn plant response rating (corn; [11]): 0
B. signalgrass plant response rating (surinam grass; [1]): 0
B. signalgrass plant response rating (surinam grass; [5]): 0
B. signalgrass plant response rating (surinam grass; [6]): 0
Plant response rating, B. signalgrass (surinam grass; [7]): 0
Plant response rating, B. signalgrass (surinam grass; [8]): 0
B. signalgrass plant response rating (surinam grass; [9]): 4
B. signalgrass plant response rating (surinam grass; [10]): 0
B. signalgrass plant response rating (surinam grass; Rate 500 g/ha, Postemergence, scale of 0 to 10 where 0 is no effect and 10 is complete control): 0
Blackgrass plant response rating (blackgrass; [1]): 2
Blackgrass plant response rating (blackgrass; [5]): 3
Blackgrass plant response rating (blackgrass; [6]): 0
Plant response rating, Blackgrass (blackgrass; [7]): 2
Plant response rating, Blackgrass (blackgrass; [8]): 4
Blackgrass plant response rating (blackgrass; [9]): 6
Blackgrass plant response rating (blackgrass; [10]): 2
Blackgrass plant response rating (blackgrass; [11]): 5
Wheat plant response rating (wheat; [1]): 0
Wheat plant response rating (wheat; [5]): 0
Wheat plant response rating (wheat; [6]): 0
Plant response rating, Wheat (wheat; [7]): 0
Plant response rating, Wheat (wheat; [8]): 0
Wheat plant response rating (wheat; [9]): 0
Wheat plant response rating (wheat; [10]): 0
Wheat plant response rating (wheat; [11]): 0
Cocklebur plant response rating (cocklebur; [1]): 0
Cocklebur plant response rating (cocklebur; [5]): 0
Cocklebur plant response rating (cocklebur; [6]): 0
Plant response rating, Cocklebur (cocklebur; [7]): 0
Plant response rating, Cocklebur (cocklebur; [8]): 0
Cocklebur plant response rating (cocklebur; [9]): 0
Cocklebur plant response rating (cocklebur; [10]): 0
Cocklebur plant response rating (cocklebur; [11]): 1
Barnyardgrass plant response rating (bamyardgrass; [1]): 0
Barnyardgrass plant response rating (bamyardgrass; [2]): 3
Barnyardgrass plant response rating (bamyardgrass; [3]): 9
Barnyardgrass plant response rating (bamyardgrass; [4]): 8
